Our source for the EC50 and IC50 values is ChEMBL document CHEMBL1201862, “PubChem BioAssay data set” (2004).

Activity calls are given as the source filed them.

Assay [1] concerns the target Intestinal-type alkaline phosphatase (Mus musculus, UniProt P24822). Put plainly: PubChem AID 488875. The class given is functional.
Assay [2] concerns the target T1, Intestinal-type alkaline phosphatase (Homo sapiens, UniProt P09923). Put plainly: human IAP activators, dose response, biochemical, luminescent, uHTS hits, set 2 (AID 488817).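 Note: potency of activators that raise enzyme activity.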 The format is functional.
Assay [3] concerns the target T2, Alkaline phosphatase, tissue-nonspecific isozyme (Homo sapiens, UniProt P05186).
T2 sequence (P05186 whole entry): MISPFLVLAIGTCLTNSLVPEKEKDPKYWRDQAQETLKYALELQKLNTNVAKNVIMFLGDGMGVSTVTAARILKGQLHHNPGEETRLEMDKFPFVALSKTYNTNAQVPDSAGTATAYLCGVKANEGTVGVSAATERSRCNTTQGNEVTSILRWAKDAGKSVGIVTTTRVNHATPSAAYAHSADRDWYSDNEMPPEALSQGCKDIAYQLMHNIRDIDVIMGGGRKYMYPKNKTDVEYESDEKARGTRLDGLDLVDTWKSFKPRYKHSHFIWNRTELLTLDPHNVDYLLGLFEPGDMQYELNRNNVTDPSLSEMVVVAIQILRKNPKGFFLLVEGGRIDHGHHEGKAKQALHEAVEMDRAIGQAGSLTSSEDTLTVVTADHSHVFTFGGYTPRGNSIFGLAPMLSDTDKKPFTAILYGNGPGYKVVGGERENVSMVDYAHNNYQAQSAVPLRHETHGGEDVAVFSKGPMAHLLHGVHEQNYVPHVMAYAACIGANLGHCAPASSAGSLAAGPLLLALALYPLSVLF
In words: TNAP enzyme activators, dose response, selectivity assay for human IAP activator project, biochemical, TNAP isozyme, human IAP uHTS hits (AID 488886).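 Note: potency of compounds raising TNAP activity as a selectivity check on IAP activators.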 The format is functional.

The target in assay [4] is T1, Intestinal-type alkaline phosphatase. In words: human intestinal alkaline phosphatase activators, dose response, biochemical, luminescence, uHTS hits (AID 463120). The class given is functional.
In assay [5] the target is T3, Tyrosine-protein phosphatase non-receptor type 7 (Homo sapiens, UniProt P35236).
T3 sequence (P35236 whole entry): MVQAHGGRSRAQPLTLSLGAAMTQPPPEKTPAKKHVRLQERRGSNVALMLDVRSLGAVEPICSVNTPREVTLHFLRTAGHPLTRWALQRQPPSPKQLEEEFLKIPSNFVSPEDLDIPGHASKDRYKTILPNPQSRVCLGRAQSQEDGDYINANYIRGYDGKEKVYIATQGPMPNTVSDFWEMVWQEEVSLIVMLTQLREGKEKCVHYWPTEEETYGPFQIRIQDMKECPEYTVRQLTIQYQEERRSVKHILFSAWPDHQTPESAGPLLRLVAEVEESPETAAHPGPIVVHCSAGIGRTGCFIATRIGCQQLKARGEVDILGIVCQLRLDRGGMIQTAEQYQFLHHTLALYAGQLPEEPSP
The format is functional.

The target of assay [6] is T4, Tyrosine-protein phosphatase non-receptor type 22 (Homo sapiens, UniProt Q9Y2R2).
T4 sequence (Q9Y2R2 whole entry): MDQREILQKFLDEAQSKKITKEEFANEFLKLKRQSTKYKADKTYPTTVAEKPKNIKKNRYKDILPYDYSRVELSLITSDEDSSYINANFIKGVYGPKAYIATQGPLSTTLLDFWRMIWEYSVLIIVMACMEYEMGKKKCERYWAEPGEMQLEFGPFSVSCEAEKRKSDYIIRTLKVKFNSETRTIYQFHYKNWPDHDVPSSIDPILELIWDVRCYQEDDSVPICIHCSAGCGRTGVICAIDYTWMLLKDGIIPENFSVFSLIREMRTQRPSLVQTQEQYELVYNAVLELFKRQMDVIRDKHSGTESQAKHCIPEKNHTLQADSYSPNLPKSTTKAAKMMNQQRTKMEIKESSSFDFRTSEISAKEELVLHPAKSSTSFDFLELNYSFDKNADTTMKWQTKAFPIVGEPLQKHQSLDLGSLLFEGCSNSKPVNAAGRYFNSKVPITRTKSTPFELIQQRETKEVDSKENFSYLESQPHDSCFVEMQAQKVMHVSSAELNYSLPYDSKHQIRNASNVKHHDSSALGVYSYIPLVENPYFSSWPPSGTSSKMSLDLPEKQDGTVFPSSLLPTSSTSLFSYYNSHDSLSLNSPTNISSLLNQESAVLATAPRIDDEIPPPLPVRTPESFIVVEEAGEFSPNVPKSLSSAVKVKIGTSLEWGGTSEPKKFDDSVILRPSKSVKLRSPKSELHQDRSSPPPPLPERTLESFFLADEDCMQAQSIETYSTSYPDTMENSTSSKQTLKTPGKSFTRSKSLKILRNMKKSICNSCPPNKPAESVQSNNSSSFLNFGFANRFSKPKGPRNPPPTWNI
The class given is functional.

Assay [7] has as its target T4, Tyrosine-protein phosphatase non-receptor type 22. The class given is functional. The source holds these as a separate data set.
Assay [8] relates to HEK293. Put plainly: SAR analysis of compounds that are cytotoxic to HEK293 - Set 3. [Related pubchem assays (depositor defined):AID1575, AID1578, AID1848, AID1849, AID2001, AID2333, AID2334, AID2335, AID2337, AID2469]. The class given is functional, cell-based. To be noted: Homo sapiens.
The target of assay [9] is T5, Interleukin-8 (Homo sapiens, UniProt P10145).
T5 sequence (P10145 whole entry): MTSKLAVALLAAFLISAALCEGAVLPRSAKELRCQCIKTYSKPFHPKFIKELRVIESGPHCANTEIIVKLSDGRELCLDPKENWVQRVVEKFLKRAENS
Put plainly: SAR analysis of GM-Tri-DAP induced IL-8 secretion in MCF-7/NOD1 cells - Set 2. [Related pubchem assays (depositor defined):AID1575, AID1578, AID2333]. The format is functional, cell-based.

Assay [10] deals with T6, Nucleotide-binding oligomerization domain-containing protein 1 (Homo sapiens, UniProt Q9Y239).
T6 sequence (Q9Y239 whole entry): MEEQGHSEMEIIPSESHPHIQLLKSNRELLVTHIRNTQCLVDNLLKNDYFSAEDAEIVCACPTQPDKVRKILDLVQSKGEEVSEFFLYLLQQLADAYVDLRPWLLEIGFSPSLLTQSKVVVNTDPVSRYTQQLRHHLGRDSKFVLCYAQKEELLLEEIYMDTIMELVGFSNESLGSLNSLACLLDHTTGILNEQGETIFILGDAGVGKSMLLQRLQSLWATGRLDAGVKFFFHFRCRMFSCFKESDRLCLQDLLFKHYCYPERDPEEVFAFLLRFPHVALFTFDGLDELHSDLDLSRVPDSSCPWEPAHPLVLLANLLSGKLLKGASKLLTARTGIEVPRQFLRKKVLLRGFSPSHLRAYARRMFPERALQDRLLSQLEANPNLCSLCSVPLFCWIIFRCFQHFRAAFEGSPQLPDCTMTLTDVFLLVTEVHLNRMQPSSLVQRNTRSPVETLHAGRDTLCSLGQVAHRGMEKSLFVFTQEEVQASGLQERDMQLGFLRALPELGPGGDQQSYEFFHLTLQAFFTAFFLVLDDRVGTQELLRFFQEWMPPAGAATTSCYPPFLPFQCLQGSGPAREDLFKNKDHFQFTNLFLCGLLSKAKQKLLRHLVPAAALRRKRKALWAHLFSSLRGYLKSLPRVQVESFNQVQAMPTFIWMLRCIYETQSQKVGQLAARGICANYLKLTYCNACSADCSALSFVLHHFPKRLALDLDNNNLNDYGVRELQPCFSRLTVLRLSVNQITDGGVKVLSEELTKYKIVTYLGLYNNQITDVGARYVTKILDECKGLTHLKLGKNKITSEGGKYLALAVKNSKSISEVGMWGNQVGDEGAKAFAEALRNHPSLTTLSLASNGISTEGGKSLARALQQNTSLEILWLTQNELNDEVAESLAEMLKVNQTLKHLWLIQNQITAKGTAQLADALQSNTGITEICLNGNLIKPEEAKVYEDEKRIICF
In words: SAR analysis of NF-kappaB dependent luciferase using DAP as an inducer - Set 2. [Related pubchem assays (depositor defined):AID1566, AID1575, AID1578, AID1579, AID1849, AID1852, AID2264]. The class given is functional.

Assay [11] concerns HEK293. In words: SAR analysis of compounds that are cytotoxic to HEK293 - Set 2. [Related pubchem assays (depositor defined):AID1575, AID1578, AID1849, AID2001, AID2333, AID2334, AID2335, AID2337, AID2800]. The class given is functional, cell-based. To be noted: Homo sapiens.
Assay [12] addresses Tumor necrosis factor (Homo sapiens, UniProt P01375). In words: TNFa-triggered NF-kB activation inhibitors, SAR follow-up, cell-based, set 3 (AID 2801). The format is functional.
In assay [13] the target is T7, Nucleotide-binding oligomerization domain-containing protein 2 (Homo sapiens, UniProt Q9HC29). Put plainly: NOD2 inhibitors, SAR follow-up, set 2 (AID 2475). The class given is functional.
T7 sequence (Q9HC29 whole entry, the tested form may be a part): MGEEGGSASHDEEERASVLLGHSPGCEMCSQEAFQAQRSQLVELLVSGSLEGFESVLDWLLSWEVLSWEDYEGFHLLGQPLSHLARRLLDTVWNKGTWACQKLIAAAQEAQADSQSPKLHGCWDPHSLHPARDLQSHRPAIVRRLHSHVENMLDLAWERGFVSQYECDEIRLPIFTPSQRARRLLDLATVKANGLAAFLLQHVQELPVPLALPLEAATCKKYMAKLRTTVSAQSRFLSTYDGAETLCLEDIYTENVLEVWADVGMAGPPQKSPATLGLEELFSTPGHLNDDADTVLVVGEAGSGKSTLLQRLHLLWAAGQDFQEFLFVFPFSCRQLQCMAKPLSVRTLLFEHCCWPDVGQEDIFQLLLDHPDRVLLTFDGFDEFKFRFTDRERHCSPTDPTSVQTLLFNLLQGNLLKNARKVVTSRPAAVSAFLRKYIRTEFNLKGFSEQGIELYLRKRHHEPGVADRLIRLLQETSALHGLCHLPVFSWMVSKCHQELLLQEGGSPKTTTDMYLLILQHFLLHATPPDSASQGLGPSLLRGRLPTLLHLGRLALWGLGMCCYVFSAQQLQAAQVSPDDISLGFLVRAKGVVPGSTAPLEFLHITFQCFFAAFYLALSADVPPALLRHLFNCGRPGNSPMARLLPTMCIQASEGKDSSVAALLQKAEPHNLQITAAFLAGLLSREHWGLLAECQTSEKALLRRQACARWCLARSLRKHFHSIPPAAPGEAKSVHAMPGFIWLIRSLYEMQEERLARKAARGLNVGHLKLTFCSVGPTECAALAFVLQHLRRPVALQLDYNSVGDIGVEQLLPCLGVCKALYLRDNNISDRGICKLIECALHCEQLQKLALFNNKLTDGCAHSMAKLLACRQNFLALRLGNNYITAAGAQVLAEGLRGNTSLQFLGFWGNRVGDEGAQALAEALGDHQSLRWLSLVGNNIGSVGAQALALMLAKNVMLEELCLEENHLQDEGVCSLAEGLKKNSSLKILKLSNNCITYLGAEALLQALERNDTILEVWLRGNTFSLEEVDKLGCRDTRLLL
For assay [14], the target named is T6, Nucleotide-binding oligomerization domain-containing protein 1. In words: SAR analysis of compounds that inhibit NOD1 - Set 3. [Related pubchem assays (depositor defined):AID1566, AID1575, AID1578, AID1849, AID1852, AID2333, AID2335, AID2466]. The format is functional.
Assay [15] concerns the target T5, Interleukin-8. Put plainly: SAR analysis of Tumor necrosis factor alpha (TNF-alpha) induced IL-8 secretion in MCF-7/NOD1 cells - Set 2. [Related pubchem assays (depositor defined):AID1575, AID2250, AID2260]. The class given is functional, cell-based.
Assay [16] concerns the target T7, Nucleotide-binding oligomerization domain-containing protein 2. In words: NOD2 signaling inhibitors, analog potency, SAR follow-up, cell-based, set 3 (AID 2799). The class given is functional.
In assay [17] the target is T8, E3 ubiquitin-protein ligase XIAP (Homo sapiens, UniProt P98170). Put plainly: SAR analysis of Antagonists of XIAP-Bir3 domain of IAP-family anti-apoptotic proteins. [Related pubchem assays (depositor defined):AID1018, AID1449, AID1513, AID1514, AID1638].
T8 sequence (P98170 whole entry, the tested form may be a part): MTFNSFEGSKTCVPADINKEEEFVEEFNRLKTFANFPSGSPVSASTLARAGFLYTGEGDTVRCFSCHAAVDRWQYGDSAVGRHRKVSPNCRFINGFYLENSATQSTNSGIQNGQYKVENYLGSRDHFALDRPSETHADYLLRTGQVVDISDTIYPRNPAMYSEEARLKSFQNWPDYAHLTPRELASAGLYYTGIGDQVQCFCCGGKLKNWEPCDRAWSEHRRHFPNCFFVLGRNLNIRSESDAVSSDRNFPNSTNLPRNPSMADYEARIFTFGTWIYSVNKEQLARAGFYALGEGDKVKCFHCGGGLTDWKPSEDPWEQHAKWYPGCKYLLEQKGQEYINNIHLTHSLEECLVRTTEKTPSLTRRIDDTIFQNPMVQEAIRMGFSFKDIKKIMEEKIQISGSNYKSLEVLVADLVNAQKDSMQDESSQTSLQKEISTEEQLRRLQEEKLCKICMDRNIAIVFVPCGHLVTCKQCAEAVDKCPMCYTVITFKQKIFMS
Assay [18] concerns the target T8, E3 ubiquitin-protein ligase XIAP. In words: SAR analysis of Antagonists of IAP-family anti-apoptotic proteins. [Related pubchem assays (depositor defined):AID1018, AID1449, AID1513, AID1514, AID1638].
Assay [19] has as its target T9, Kappa-type opioid receptor (Homo sapiens, UniProt P41145). In words: SAR analysis of small molecule antagonists of the kappa opioid receptor via a luminescent beta-arrestin assay - Set 4. [Related pubchem assays (depositor defined):AID1777, AID1778, AID1785, AID1786, AID1966, AID2133, AID2136, AID2285]. The format is functional.
In assay [20] the target is T9, Kappa-type opioid receptor. Put plainly: SAR analysis of small molecule antagonists of the kappa opioid receptor via a luminescent beta-arrestin assay - Set 5. [Related pubchem assays (depositor defined):AID1778, AID1785]. The class given is functional.

T9 sequence (P41145 whole entry): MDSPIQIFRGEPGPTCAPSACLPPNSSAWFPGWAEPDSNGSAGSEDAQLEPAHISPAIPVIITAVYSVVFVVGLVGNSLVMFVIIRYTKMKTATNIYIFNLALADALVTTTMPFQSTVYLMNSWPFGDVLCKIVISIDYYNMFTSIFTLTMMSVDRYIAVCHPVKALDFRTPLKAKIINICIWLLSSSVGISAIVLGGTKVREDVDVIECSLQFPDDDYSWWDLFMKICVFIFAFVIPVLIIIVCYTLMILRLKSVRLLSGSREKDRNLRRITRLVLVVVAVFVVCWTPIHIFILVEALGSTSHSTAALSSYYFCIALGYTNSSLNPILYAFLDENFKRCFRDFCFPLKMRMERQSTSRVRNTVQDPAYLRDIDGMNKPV
T1 sequence (P09923 whole entry): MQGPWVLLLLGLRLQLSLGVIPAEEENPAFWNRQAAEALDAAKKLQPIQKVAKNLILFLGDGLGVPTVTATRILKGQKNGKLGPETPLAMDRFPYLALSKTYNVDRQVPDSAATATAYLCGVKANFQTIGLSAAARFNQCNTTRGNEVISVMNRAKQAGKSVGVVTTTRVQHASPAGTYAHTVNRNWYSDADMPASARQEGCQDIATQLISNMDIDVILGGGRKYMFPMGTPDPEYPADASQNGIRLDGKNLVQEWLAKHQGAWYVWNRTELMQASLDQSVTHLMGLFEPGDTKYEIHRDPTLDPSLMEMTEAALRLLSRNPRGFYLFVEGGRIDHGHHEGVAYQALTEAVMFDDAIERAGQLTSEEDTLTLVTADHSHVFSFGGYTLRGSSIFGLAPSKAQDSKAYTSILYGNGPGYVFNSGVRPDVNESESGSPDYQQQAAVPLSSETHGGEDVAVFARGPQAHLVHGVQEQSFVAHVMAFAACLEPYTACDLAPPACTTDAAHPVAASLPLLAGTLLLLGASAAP
Intestinal-type alkaline phosphatase (Mus musculus, UniProt P24822), sequence (P24822 whole entry): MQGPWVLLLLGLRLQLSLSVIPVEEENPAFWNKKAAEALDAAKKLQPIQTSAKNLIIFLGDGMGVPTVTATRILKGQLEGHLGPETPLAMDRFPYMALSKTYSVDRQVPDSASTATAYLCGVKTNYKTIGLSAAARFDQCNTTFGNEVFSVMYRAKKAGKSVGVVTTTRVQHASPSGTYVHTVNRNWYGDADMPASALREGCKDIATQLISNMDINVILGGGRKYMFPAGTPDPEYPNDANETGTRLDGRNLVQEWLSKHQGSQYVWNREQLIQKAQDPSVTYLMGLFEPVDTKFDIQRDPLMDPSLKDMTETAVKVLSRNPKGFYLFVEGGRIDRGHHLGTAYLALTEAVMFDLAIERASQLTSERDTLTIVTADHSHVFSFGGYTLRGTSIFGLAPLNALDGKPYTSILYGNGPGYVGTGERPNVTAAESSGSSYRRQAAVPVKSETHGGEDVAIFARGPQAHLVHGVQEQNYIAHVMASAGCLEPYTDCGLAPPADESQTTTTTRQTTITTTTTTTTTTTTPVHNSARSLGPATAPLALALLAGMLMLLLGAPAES
Tumor necrosis factor, sequence (P01375 whole entry, the tested form may be a part): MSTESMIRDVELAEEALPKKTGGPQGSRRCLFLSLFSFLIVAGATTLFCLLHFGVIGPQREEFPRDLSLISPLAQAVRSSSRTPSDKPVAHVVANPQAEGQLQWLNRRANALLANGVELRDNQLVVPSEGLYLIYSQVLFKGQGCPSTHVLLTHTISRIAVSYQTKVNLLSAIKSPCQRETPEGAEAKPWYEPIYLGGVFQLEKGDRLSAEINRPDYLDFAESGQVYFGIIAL

On to `CC(N=C(S)NC1CCC(C(C)(C)C)CC1)c1ccccc1` (stereo not given), for which the EC50 is 22.4 µM (active) in [1], 44.3 µM (active) in [2], 38.8 µM (active) in assay [3] and 39.8 µM (active) in assay [4].

In the case of `COc1ccc(C2CC(c3ccc(C)cc3)=NN2C(=O)CCC(=O)O)cc1OC` (stereo not given), the IC50 in assay [5], in assay [6] and in [7] was > 79.4 µM (inactive) in each case.

Regarding `CCCCCn1c(SCCc2ccccc2)nc2c1c(=O)[nH]c(=O)n2C`, the IC50 in [8] was > 20 µM (inactive); in assay [9], 4.1 µM (active); in assay [10] it was > 25 µM (inactive); in assay [11], > 20 µM (inactive); in [12], > 20 µM (inactive); in assay [13] it was > 20 µM (inactive). The IC50 in assay [14] is 1.74 µM (active); in assay [15], > 25 µM (inactive); in assay [16], > 20 µM (inactive).

For the compound `CN[C@@H](C)C(=O)N[C@H](C(=O)N[C@@H](C)C(=O)NNc1ccccc1)C(C)C`, the IC50 in assay [17] is 132 µM (active); in [18] it was 4.7 µM (active).

In the case of `Cc1ccc(S(=O)(=O)NCc2ccc(C(=O)NCCN(Cc3ccc([N+](=O)[O-])cc3)C(C)C)cc2)cc1`, the IC50 in assay [19] and in assay [20] was > 20 µM (inactive) each time.

As usually defined, the EC50 is the midpoint of the concentration-response curve. In general, IC50 refers to the point on the concentration scale where inhibition reaches its midpoint.
